# Source: PubChem BioAssay AID330 (DTP/NCI, 2004)
# “And” between values parts separate entries of the source, which are not always exact repeats. Identical values can stand only once. Toxic doses and inconclusive results are not listed. Peptide text beside a SMILES is read from it. * marks the point of attachment. Cbz = O=C(OCc1ccccc1)*
# Test system: P388 leukemia ip, CD2F1 mice, survival T/C
# Assay: NCI In Vivo Anticancer Drug Screen. Data for tumor model P388 Leukemia (intraperitoneal) in CD2F1 (CDF1) mice
# Details: endpoint: median survival time, higher = longer survival
# Outline: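 Mice carrying the transplanted tumor received test compound or vehicle. Survival was recorded in each group, and the value is the treated-group measurement divided by that of the vehicle-treated control group.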
# [1] = dose: 25.0 mg/kg/injection, schedule: Q01DX009 (ip), vehicle: saline
# [2] = dose: 50.0 mg/kg/injection, schedule: Q01DX009 (ip), vehicle: saline
# [3] = dose: 100.0 mg/kg/injection, schedule: Q01DX009 (ip), vehicle: saline
# [4] = dose: 60.0 mg/kg/injection, schedule: Q01DX005 (ip), vehicle: saline with Tween-80
# [5] = dose: 120.0 mg/kg/injection, schedule: Q01DX005 (ip), vehicle: saline with Tween-80
# [6] = dose: 240.0 mg/kg/injection, schedule: Q01DX005 (ip), vehicle: saline with Tween-80
# [7] = dose: 50.0 mg/kg/injection, schedule: Q01DX009 (ip), vehicle: suspension in saline
# [8] = dose: 100.0 mg/kg/injection, schedule: Q01DX009 (ip), vehicle: suspension in saline
# [9] = dose: 12.5 mg/kg/injection, schedule: Q04DX003 (ip), vehicle: saline with Tween-80
# [10] = dose: 25.0 mg/kg/injection, schedule: Q04DX003 (ip), vehicle: saline with Tween-80
# [11] = dose: 50.0 mg/kg/injection, schedule: Q01DX005 (ip), vehicle: Klucel (hydroxypropylcellulose) (HPC)
# [12] = dose: 100.0 mg/kg/injection, schedule: Q01DX005 (ip), vehicle: Klucel (hydroxypropylcellulose) (HPC)
# [13] = dose: 200.0 mg/kg/injection, schedule: Q01DX005 (ip), vehicle: Klucel (hydroxypropylcellulose) (HPC)
# [14] = dose: 200.0 mg/kg/injection, schedule: Q01DX009 (ip), vehicle: saline
structure (smiles),measurement,setting,value
COc1cc(C(=O)O)on1,T/C,[1],103 % of control
same,T/C,[2],99 % of control
same,T/C,[3],89 % of control and 96 % of control
Cc1nc2c(I)cccc2c(=O)n1CC(=O)NNC(N)=S,T/C,"dose: 100.0 mg/kg/injection, schedule: Q04DX003 (ip), vehicle: saline with Tween-80",101 % of control
same,T/C,"dose: 200.0 mg/kg/injection, schedule: Q04DX003 (ip), vehicle: saline with Tween-80",97 % of control
same,T/C,"dose: 400.0 mg/kg/injection, schedule: Q04DX003 (ip), vehicle: saline with Tween-80",100 % of control
CC1=CC(C)(C)Nc2ccc(OC(=O)/C=C(C)/C=C/C=C(C)/C=C/C3=C(C)CCCC3(C)C)cc21,T/C,[4],94 % of control
same,T/C,[5],91 % of control
same,T/C,[6],94 % of control
[Cl][Pt+2][Cl].[NH-]c1ccc(Cl)cc1[NH-],T/C,"dose: 6.25 mg/kg/injection, schedule: Q04DX002 (ip), vehicle: saline with Tween-80",150 % of control
same,T/C,"dose: 12.5 mg/kg/injection, schedule: Q04DX002 (ip), vehicle: saline with Tween-80",157 % of control
same,T/C,"dose: 25.0 mg/kg/injection, schedule: Q04DX002 (ip), vehicle: saline with Tween-80",168 % of control
C=C1C(=O)O[C@H]2C=C(C)[C@H]3[C@@H](OC(C)=O)C[C@@](C)(O)[C@@H]3C[C@H]12,T/C,"dose: 12.5 mg/kg/injection, schedule: Q01DX009 (ip), vehicle: suspension in saline",106 % of control
same,T/C,"dose: 25.0 mg/kg/injection, schedule: Q01DX009 (ip), vehicle: suspension in saline",106 % of control
same,T/C,[7],103 % of control
same,T/C,[8],114 % of control
O=[N+]([O-])c1nncs1,T/C,"dose: 6.25 mg/kg/injection, schedule: Q04DX003 (ip), vehicle: saline with Tween-80",105 % of control
same,T/C,[9],100 % of control
same,T/C,[10],110 % of control
CCOC(=O)CCC(NC(=O)C(CCC(=O)OCC)NC(=O)OCc1ccccc1)C(=O)O (stereo unspecified) (tested in a mixture with another compound) (Cbz-Glu(OEt)-Glu(OEt)-OH; configuration not given here),T/C,[11],100 % of control
same,T/C,[12],100 % of control
same,T/C,[13],100 % of control
CC1(c2ccccn2)OCCO1,T/C,[2],97 % of control
same,T/C,[3],104 % of control
same,T/C,[14],108 % of control
CN(C)CCOCC(O)(c1ccccc1)c1ccccc1,T/C,[7],100 % of control
same,T/C,[8],103 % of control
CC(=O)OC1OC(CS[As](C)C)C(OC(C)=O)C(OC(C)=O)C1OC(C)=O (stereo unspecified),T/C,[2],104 % of control
same,T/C,[3],106 % of control
same,T/C,[14],104 % of control
O=C(O)CCC(Nc1ncnc2nc[nH]c12)C(=O)O (stereo unspecified),T/C,"dose: 50.0 mg/kg/injection, schedule: Q01DX005 (ip), vehicle: saline with Tween-80",92 % of control
same,T/C,"dose: 100.0 mg/kg/injection, schedule: Q01DX005 (ip), vehicle: saline with Tween-80",97 % of control
same,T/C,"dose: 200.0 mg/kg/injection, schedule: Q01DX005 (ip), vehicle: saline with Tween-80",89 % of control
O=c1[nH]c(Sc2ccccn2)ccc1[N+](=O)[O-],T/C,"dose: 6.25 mg/kg/injection, schedule: Q01DX009 (ip), vehicle: Klucel (hydroxypropylcellulose) (HPC)",97 % of control
same,T/C,"dose: 12.5 mg/kg/injection, schedule: Q01DX009 (ip), vehicle: Klucel (hydroxypropylcellulose) (HPC)",91 % of control
same,T/C,"dose: 25.0 mg/kg/injection, schedule: Q01DX009 (ip), vehicle: Klucel (hydroxypropylcellulose) (HPC)",98 % of control and 92 % of control
S=C(S)NN1CCOCC1,T/C,[3],88 % of control
same,T/C,[14],110 % of control
same,T/C,"dose: 400.0 mg/kg/injection, schedule: Q01DX009 (ip), vehicle: saline",106 % of control
O=C(Nc1ccccc1F)OCCCl,T/C,[4],99 % of control
same,T/C,[5],101 % of control
same,T/C,[6],93 % of control
c1ccc(-c2cc(Nc3ccc4c(c3)OCO4)c3cc4c(cc3n2)OCO4)cc1,T/C,[11],101 % of control
same,T/C,[12],101 % of control
same,T/C,[13],97 % of control
CC(C)=Nn1c(=O)oc2cc(Cl)ccc2c1=O,T/C,"dose: 60.0 mg/kg/injection, schedule: Q01DX005 (ip), vehicle: Klucel (hydroxypropylcellulose) (HPC)",95 % of control
same,T/C,"dose: 120.0 mg/kg/injection, schedule: Q01DX005 (ip), vehicle: Klucel (hydroxypropylcellulose) (HPC)",100 % of control
same,T/C,"dose: 240.0 mg/kg/injection, schedule: Q01DX005 (ip), vehicle: Klucel (hydroxypropylcellulose) (HPC)",93 % of control
CCOC(=O)c1ccc(Nc2nc(NNC(=O)c3ccncc3)nc(Nc3ccc(C)cc3)n2)cc1,T/C,[4],99 % of control
same,T/C,[5],99 % of control
same,T/C,[6],99 % of control
CC(C)(C)c1cc(C(C)(C)C)c(=O)oc(=O)c1,T/C,[11],98 % of control
same,T/C,[12],98 % of control
CC(C)(C)N1C(=O)NCC1(C)C,T/C,[2],105 % of control
same,T/C,[3],100 % of control
same,T/C,[14],98 % of control
CC(CNCCN)C[Si](C)(C)C (stereo unspecified),T/C,"dose: 6.25 mg/kg/injection, schedule: Q01DX009 (ip), vehicle: saline",95 % of control
same,T/C,"dose: 12.5 mg/kg/injection, schedule: Q01DX009 (ip), vehicle: saline",87 % of control
same,T/C,[1],95 % of control
C/C=C1/CNC2Cc3c([nH]c4ccccc34)C(c3ccc4c5c([nH]c4c3)C3CC4CC(CC)C3N(CC5)C4)CC1C2C(=O)OC (stereo unspecified),T/C,"dose: 2.5 mg/kg/injection, schedule: Q01DX009 (ip), vehicle: saline",106 % of control
same,T/C,"dose: 5.0 mg/kg/injection, schedule: Q01DX009 (ip), vehicle: saline",100 % of control
N#Cc1c(-c2ccc(Cl)cc2)cn2c1[nH]c(=O)c1cc(Br)ccc12,T/C,[4],99 % of control
same,T/C,[5],102 % of control
same,T/C,[6],95 % of control
CCOC(=O)c1ccc(OCC#N)cc1,T/C,[11],93 % of control
same,T/C,[12],102 % of control
same,T/C,[13],98 % of control
O=C(OC1OC(COCc2ccccc2)C(OCc2ccccc2)C(OCc2ccccc2)C1OCc1ccccc1)c1ccc([N+](=O)[O-])cc1 (stereo unspecified),T/C,"dose: 100.0 mg/kg/injection, schedule: Q01DX001 (ip), vehicle: saline with Tween-80",92 % of control
same,T/C,"dose: 200.0 mg/kg/injection, schedule: Q01DX001 (ip), vehicle: saline with Tween-80",90 % of control
NCCCC(NN)C(=O)O (stereo unspecified),T/C,"dose: 3.3 mg/kg/injection, schedule: Q01DX009 (ip), vehicle: saline",101 % of control and 90 % of control
same,T/C,"dose: 6.6 mg/kg/injection, schedule: Q01DX009 (ip), vehicle: saline",100 % of control and 95 % of control
same,T/C,"dose: 7.5 mg/kg/injection, schedule: Q01DX009 (ip), vehicle: saline",100 % of control
same,T/C,"dose: 10.0 mg/kg/injection, schedule: Q01DX009 (ip), vehicle: saline",99 % of control and 97 % of control
same,T/C,"dose: 15.0 mg/kg/injection, schedule: Q01DX009 (ip), vehicle: saline",109 % of control and 93 % of control
same,T/C,"dose: 22.5 mg/kg/injection, schedule: Q01DX009 (ip), vehicle: saline",102 % of control and 110 % of control
same,T/C,"dose: 30.0 mg/kg/injection, schedule: Q01DX009 (ip), vehicle: saline",103 % of control
O=C1C(N=Nc2ccc([N+](=O)[O-])cc2)Sc2nc3ccccc3n21 (stereo unspecified),T/C,"dose: 7.5 mg/kg/injection, schedule: Q01DX005 (ip), vehicle: Klucel (hydroxypropylcellulose) (HPC)",99 % of control
same,T/C,"dose: 15.0 mg/kg/injection, schedule: Q01DX005 (ip), vehicle: Klucel (hydroxypropylcellulose) (HPC)",92 % of control
same,T/C,"dose: 30.0 mg/kg/injection, schedule: Q01DX005 (ip), vehicle: Klucel (hydroxypropylcellulose) (HPC)",90 % of control
N#Cc1ccccc1C#N,T/C,"dose: 1.56 mg/kg/injection, schedule: Q04DX003 (ip), vehicle: saline",98 % of control
same,T/C,"dose: 3.13 mg/kg/injection, schedule: Q04DX003 (ip), vehicle: saline",98 % of control
same,T/C,"dose: 6.25 mg/kg/injection, schedule: Q04DX003 (ip), vehicle: saline",100 % of control
same,T/C,[9],104 % of control
same,T/C,"dose: 12.5 mg/kg/injection, schedule: Q04DX003 (ip), vehicle: saline",100 % of control
same,T/C,[10],95 % of control
O=C(c1ccccc1)C(c1ccccc1)n1nc2c(c1-c1ccccc1)CCCC2 (stereo unspecified),T/C,"dose: 50.0 mg/kg/injection, schedule: Q01DX009 (ip), vehicle: Klucel (hydroxypropylcellulose) (HPC)",98 % of control
same,T/C,"dose: 100.0 mg/kg/injection, schedule: Q01DX009 (ip), vehicle: Klucel (hydroxypropylcellulose) (HPC)",91 % of control
same,T/C,"dose: 200.0 mg/kg/injection, schedule: Q01DX009 (ip), vehicle: Klucel (hydroxypropylcellulose) (HPC)",97 % of control
O=Cc1ccc(C(Cl)(Cl)Cl)nc1,T/C,"dose: 50.0 mg/kg/injection, schedule: Q01DX009 (ip), vehicle: saline with Tween-80",105 % of control
same,T/C,"dose: 100.0 mg/kg/injection, schedule: Q01DX009 (ip), vehicle: saline with Tween-80",110 % of control
same,T/C,"dose: 200.0 mg/kg/injection, schedule: Q01DX009 (ip), vehicle: saline with Tween-80",115 % of control
